“And” between values parts separate entries of the source, which are not always exact repeats. Identical values can stand only once.

The results in this text go back to PMC10272112 (Nature Communications, 2023).

For one assay, the target named is T1, HDAC7 (Homo sapiens, UniProt Q8WUI4).
T1 construct: endogenous in cells; host or cells: cell lysate
T1 sequence (Q8WUI4 1-952): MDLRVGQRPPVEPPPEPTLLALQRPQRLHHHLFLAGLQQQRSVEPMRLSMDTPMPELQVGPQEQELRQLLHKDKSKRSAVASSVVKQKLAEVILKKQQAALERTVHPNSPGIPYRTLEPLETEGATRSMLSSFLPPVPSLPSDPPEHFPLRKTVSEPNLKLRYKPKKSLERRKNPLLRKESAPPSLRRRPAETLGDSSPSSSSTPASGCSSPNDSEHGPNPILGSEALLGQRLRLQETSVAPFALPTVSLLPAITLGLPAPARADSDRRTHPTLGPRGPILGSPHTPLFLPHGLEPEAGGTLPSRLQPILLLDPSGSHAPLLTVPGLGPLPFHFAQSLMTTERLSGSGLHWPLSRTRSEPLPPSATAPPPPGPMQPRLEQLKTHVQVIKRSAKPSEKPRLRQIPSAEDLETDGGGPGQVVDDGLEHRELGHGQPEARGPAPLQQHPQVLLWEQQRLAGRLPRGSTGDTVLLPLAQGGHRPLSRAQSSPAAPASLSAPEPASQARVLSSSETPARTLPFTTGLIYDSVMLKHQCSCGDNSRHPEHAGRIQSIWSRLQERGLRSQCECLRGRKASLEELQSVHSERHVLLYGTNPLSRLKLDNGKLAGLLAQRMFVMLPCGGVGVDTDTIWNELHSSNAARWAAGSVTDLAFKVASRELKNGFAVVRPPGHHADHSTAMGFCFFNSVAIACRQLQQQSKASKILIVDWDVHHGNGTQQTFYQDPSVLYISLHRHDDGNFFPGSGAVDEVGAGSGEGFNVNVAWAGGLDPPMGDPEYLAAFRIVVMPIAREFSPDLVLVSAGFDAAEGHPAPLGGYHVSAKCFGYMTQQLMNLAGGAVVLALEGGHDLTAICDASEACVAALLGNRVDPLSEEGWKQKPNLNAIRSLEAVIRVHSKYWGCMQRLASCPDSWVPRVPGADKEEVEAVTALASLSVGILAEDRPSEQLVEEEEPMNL
Description: Chemoproteomic competition pulldown assay with iC. The format is binding. How it is done:
To identify proteins directly bound by lipoic acid, we employed a chemoproteomic competition assay. Briefly, (R/S)-LA was immobilized on sepharose beads via an amidation reaction to form an affinity matrix (abbreviated as iL; Fig. 1a). This affinity matrix can be incubated with cell lysate to pull down potential LA or LM target proteins and identify these targets via bottom-up proteomics. In a competition assay, free LA or LM were incubated with lysate at different concentrations before pulling down and quantifying target proteins. […] (Fig. 1b, see “Methods” for details). […] The lysate buffer used in this assay contains 1 mM DTT to mimic the intracellular reductive milieu and to reduce lipoic acid and LM. […] Additional competition assays performed in lung adenocarcinoma cell A549 lysate also identified HDAC1, HDAC2, and HDAC6 as targets (Supplementary Fig. 1b). Amongst the three cell lines tested, HDACs were the only confidently identified targets across the 1500–3000 proteins quantified in these assays. […] We validated the results by analogous pulldown competition assays using two other affinity matrices prepared via the immobilization of either the HDAC inhibitor Quisinostat (iQ) and an analog of the class IIa HDAC inhibitor Bürli’s 31[14] (iC)[12]. We have previously shown that these affinity matrices specifically bind to the active sites of HDACs and have used them for HDACi selectivity profiling. Indeed, binding of (R/S)-LA and (R/S)-LM to HDAC1, HDAC2, HDAC3, HDAC6, and, to a lesser extent, HDAC8 was confirmed in these assays (Supplementary Fig. 1c, d). No binding to class IIa HDACs or the recently discovered common HDAC inhibitor off-target MBLAC2 was observed (Supplementary Fig. 1e)[12]. […] This observation might reflect electrostatic repulsion between the HDAC10 active site gate-keeper glutamic acid residues[15],[16] and the terminal carboxylic acid of LA.
To assess the degree of protein depletion from lysates by the affinity matrix, a second pulldown (PDPD) with fresh beads was performed using the unbound protein fraction from the vehicle control flow through. The beads were washed (1 × 1 mL of lysis buffer without inhibitors and only 0.4% Igepal, 2 × 2 mL of lysis buffer without inhibitors and only 0.2% Igepal), and captured proteins were denatured with 8 M urea buffer, alkylated with 55 mM chloroacetamide and digested with Trypsin according to standard procedures. The resulting peptides were desalted on a C18 filter plate (Sep-Pak® tC18 µElution Plate, Waters), vacuum dried, and stored at −20 °C until LC–MSMS measurement.
For the competition assays, relative binding was calculated based on the protein intensity ratio to the DMSO control for every single inhibitor concentration. EC50 values were derived from a four-parameter log-logistic regression with variable slope (constrain: bottom > 0). The obtained EC50 values were multiplied with a protein-dependent correction factor (cf), resulting in the apparent Kd value (Kd^app). The correction factor is determined by calculating the ratio of the protein intensity of two consecutive pulldowns of the vehicle control sample[13]. Targets of the inhibitors were annotated manually according to published procedures[12],[46],[47]. […] Additionally, the number of unique peptides and MSMS counts per condition were taken into account. Positive target binding across several independent experiments performed with different cell lysates further substantiated our confidence for a true positive drug-target binding event.

The next assay deals with A549 cells. Kind of assay: Arsenite-induced stress granule formation (G3BP1 immunofluorescence). The format is cell-based. As to conditions: for arsenite-induced stress granule quantification (G3BP1), Mean / arsenite-induced stress granule quantification (G3BP1), Median / arsenite-induced stress granule quantification (G3BP1), individual values: sheet 4b; for arsenite-induced stress granule quantification (G3BP1), individual values: single data points. As to the method: The acetylation status of proteins can affect their macromolecular associations and the tendency of proteins to phase-separate into liquid condensates such as stress granules. […] After pre-incubation of cells with the compound, stress granule formation was induced using 30 min of arsenite treatment (1 mM). After treatment, cells were fixed for immunofluorescence detection of stress granules via the common stress granule marker protein G3BP1[21].
0.03 × 10^6 A549 cells were seeded at 4-chamber slides (Thermo, Nunc) and cultured at 37 °C overnight. Cells were treated with HDAC inhibitor SAHA and Lipoic acid or LM for 6 h, followed by 1 mM Arsenite for 30 min. Cells were fixed by 4% PFA and permeabilized by 0.5% Triton X-100/PBS. 10% Goat serum in PBS was used for blocking. After manually selecting an area with cell confluency of 50–80%, 16 pictures were taken randomly around the central point (ZEISS software in-built function). Stress granule marker G3BP1 (Aviva Systems Biology, ARP37713_T100) was visualized and quantified by ImageJ. Statistical analysis was performed with GraphPad Prism.

With `O=C(O)CCCCC1CCSS1` (racemic) [(R/S)-LA, (R/S)-lipoic acid], the “relative binding vs DMSO” value is reported as 1.458 at HDAC7 (log10 M -3.52288); 1.397 at HDAC7 (log10 M -4); 1.757 at HDAC7 (log10 M -4.52288); 1.642 at HDAC7 (log10 M -5); 1.564 at HDAC7 (log10 M -5.52288); 1.746 at HDAC7 (log10 M -6). In addition, the figures for the “relative binding vs DMSO” value at HDAC7 (log10 M -6.52288) and at HDAC7 (log10 M -7) were 1.164 and 1.455, respectively.
For `NC(=O)CCCCC1CCSS1` (racemic) [(R/S)-LM, (R/S)-lipoamide], the “arsenite-induced stress granule quantification (G3BP1), Mean” value in the assay with A549 cells (LM 100 uM) is 50.8573; with A549 cells (LM 300 uM), 32.0457; in the assay with A549 cells (LM 1000 uM), 21.5611. For the same molecule, the “arsenite-induced stress granule quantification (G3BP1), Median” value turned out to be 45.1 with A549 cells (LM 100 uM), 30.3222 in the assay on A549 cells (LM 300 uM) and 21.7363 in the assay on A549 cells (LM 1000 uM). The “arsenite-induced stress granule quantification (G3BP1), individual values” in the assay on A549 cells (LM 100 uM) is 71 and 31.1875 and 45 and 63.6 and 40.5 and 81.5 and 35.3333 and 36 and 53.7143 and 35.8571 and 38.125 and 41.75 and 45.1 and 52.8 and 44.3 and 63.75 and 64.7778 and 49.1818 and 58.6 and 39.7273 and 76.2; in the assay on A549 cells (LM 300 uM), 24.4375 and 30.6667 and 27.6923 and 44.9286 and 34.8 and 39.0909 and 43.75 and 27.5454 and 17.65 and 28.1111 and 42.3 and 13.75 and 29.6842 and 28.3684 and 12.875 and 35.8333 and 25.5 and 35.3077 and 30.4444 and 43.6667 and 30.2 and 36.2308 and 27.3889 and 58.875; in the assay with A549 cells (LM 1000 uM) it was 28.8889 and 25.875 and 20.6667 and 21.6154 and 30.8182 and 26.2857 and 7.556 and 13.9375 and 25.5714 and 28 and 21.25 and 20 and 16.75 and 17 and 9.615 and 15.3 and 22.6191 and 29.6154 and 21.8571. In the assay on A549 cells (pre-incubation 6 h, then 1 mM arsenite 30 min), the “effect on stress granule numbers per cell” value is on record as “dose-dependent reduction of stress granule numbers per cell”.
